Test results taken from US20150101077A1, “INDUCIBLE PROMOTER SEQUENCES FOR REGULATED EXPRESSION AND METHODS OF USE” (PIONEER HI-BRED INTERNATIONAL INC, priority 2012, published 2015).

How the values were obtained:
1.0 kb ZmCAS1 promoter [1] = test: X-Gluc GUS staining of maize callus transformed with PHP16974; format: cell-based; settings: seven PHP16974 callus events, 100 mg/liter CBSU, room temperature, FIG. 4B
1.0 kb ZmCAS1 promoter [2] = test: X-Gluc GUS staining of rice callus transformed with PHP16974; format: cell-based, Oryza sativa cv.Kitaake; settings: PHP16974 callus events, 100 mg/liter CBSU, 24 hours, FIG. 9
Source text: To determine whether the ZmCAS1 promoter could conditionally regulate expression in response to safener treatment or heat treatment in plant species other than maize, Agrobacterium-mediated transformation was used to generate integrated copies of PHP16974 (ZmCAS1HindIII Pro:GUS) comprising the truncated 1.0 kb ZmCAS1 promoter for studies in rice. Scutellum from 10-14 day old germinating seeds (Oryza sativa cv.Kitaake) was used for rice transformation experiment (Toki. 1997, PI Mol. Biol Reporter 15:16-21). Bialophos-resistant callus events containing PHP16974 were selected and screened for their ability to respond to safener application. Four independent bialophos-resistant events were grown on maintenance media or maintenance media containing 100 mg/liter CBSU for 24 hours, removed and stained with X-Gluc. […] PHP16974 bialophos-resistant events were regenerated into plants. Leaf tissue was collected from these plants and used for DNA hybridization analyses to identify single-copy PHP16974 insertions. These plants were allowed to set selfed seed and were used for subsequent studies to monitor GUS expression under the transcriptional control of the ZmCAS1 promoter. Sixteen seed were selected from 2 single-copy PHP16974 events were sterilized, grown on hormone-free media at 28° C. or 37° C. for 48 hours and allowed to germinate. […]

1.7 kb ZmCAS1 promoter [3] = test: Western analysis of MS45 protein in ms45/ms45 maize plants transformed with PHP16973; format: in vivo; settings: PHP16973 plants watered with 30 mg of CBSU, collected 2 days later
ZmCAS1 transcript = test: Northern blot of maize RNA with ZmCAS1 probe after CBSU treatment; format: in vivo; settings: for ZmCAS1 hybridization signal in anther mRNA: FIG. 2
Procedure: Wild type maize plants were grown to the meiosis stage of microspore development. Plants were watered with 30 mg 2-CBSU and allowed to develop to the quartet and early vacuolate stage of microspore development. PolyA+ anther RNA was isolated from wild type control and CBSU treated plants and stored. A cDNA library was constructed from mRNAs isolated from CBSU-treated plants, arrayed onto nylon filters and stored. A cDNA subtraction library was generated using the Clontech PCR-Select cDNA Subtraction Kit (#K1804-1) following the manufacturer's instructions to enrich for CBSU-specific transcripts. Using this approach anther PolyA+mRNA from wild-type plants was used to enrich for transcripts found in the anther PolyA+mRNA from CBSU treated plants. This cDNA subtraction library was subcloned into pSPORT (BRL) vector, colonies plated, picked and sequenced. Among the vector inserts sequenced, two DNA sequences were present at a high proportion, at more than 10% of the inserts sequenced, and referred to as ZmCAS1c-1 (477 bp; SEQ ID NO: 1) and ZmCAS1c-2 (438 bp; SEQ ID NO: 2) (QBSU-Anther-Subtract 1). Both ZmCAS1c-1 and ZmCAS1c-2 had sequence identity to mannitol dehydrogenases from plants. ZmCASlc-1 and ZmCAS1c-2 DNA fragments were used as hybridization probes to screen the filter arrayed cDNA CBSU-anther library described above to isolate full-length cDNA containing hybridizing clones. Both ZmCAS1c-1 and ZmCAS1c-2 identified identical cDNA clones. […]
(§1) To determine whether the ZmCAS1 cDNA was 1) induced in maize anthers by CBSU-treatment and 2) reduced or absent in tapetum and microspore-ablated maize anthers from CBSU-treated 5126:DAM plants, a 477 bp ZmCAS1c-1 DNA fragment (SEQ ID NO:1), as well as DNA fragments from ZmMS45, Zm5126, ZmActin, and ZmUbiquitin (Cigan et al. 2001. […] MS45 and 5126 transcripts were easily detected in anther RNAs from male-fertile plants but absent in anther RNAs from male-sterile plants (FIG. 2) further supporting the observation that these RNAs are localized to the maize tapetum (Cigan et al. 2001. Sex. Plant Reprod. 14, 135-142).

1.7 kb ZmCAS1 promoter [4] = test: GUS expression in leaf punches of maize plants transformed with PHP16975; format: in vivo; settings: 2 days after watering with 30 mg of 2-CBSU, 3 PHP16975 plants, FIG. 5
Procedure: Plants were also regenerated from callus events containing PHP16975 and grown in the greenhouse to approximately the 5 leaf stage. At this stage of development, leaf punches from plants regenerated from the 3 bialophos-resistant events shown in FIG. 5 were collected pre- (C) and post-watering (S) with 30 mg of 2-CBSU to examine GUS expression in leaf in response to application of the safener.

1.7 kb ZmCAS1 promoter [5] = test: X-Gluc GUS staining of maize callus transformed with PHP16975; format: cell-based; settings: room temperature, 18 hours, FIG. 4A
Source text: Agrobacterium-mediated transformation of immature embryos was used to generate integrated copies of PHP16974 (SEQ ID NO:11; ZmCAS1HindIII Pro:GUS/35SPAT) comprising the 1.0 kb ZmCAS1 promoter (SEQ ID NO:9), PHP16975 (SEQ ID NO:12, ZmCAS1BamPro:GUS/35SPAT) comprising the 1.7 kb ZmCAS1 promoter (SEQ ID NO:10) and PHP16972 (SEQ ID NO:13, ZmCAS1 HindIII Pro:MS45/35SPAT) comprising the 1.0 kb ZmCAS1 promoter or PHP16973 (SEQ ID NO:14, ZmCASIBamPro:MS45/35SPAT:) comprising the 1.7 kb ZmCAS1 promoter.
To determine whether the 1.7 kb or the 1.0 kb ZmCAS1 promoter from maize could direct induced expression of the GUS reporter, three bialophos-resistant callus events were placed onto maintenance media and maintenance media containing increasing amounts of the safener CBSU-2 for at room temperature for 18 hours, removed and stained with X-Gluc to detect GUS activity.

1.0 kb ZmCAS1 promoter [6] = test: Northern analysis of MS45 mRNA in ms45/ms45 maize callus transformed with PHP16972; format: cell-based; settings: 100 mg/liter CBSU, room temperature, 18 hours, FIG. 6
Source text: T-DNA vectors PHP16972 (SEQ ID NO:13, ZmCAS1HindIII Pro: MS45/35S:PAT) and PHP16973 (SEQ ID NO: 14, ZmCAS1 BamPro:MS45/35S:PAT) were used to transform maize callus which was generated to contain a segregating population of MS45/ms45 heterozygous and ms45/ms45 homozygous mutant plants. In order to detect MS45 RNA or protein expression under the control of the 1.0 or 1.7 kb ZmCAS promoter in maize anthers, plants containing a naturally occurring mutation in the maize MS45 gene which results in loss of MS45 RNA and protein were used for these studies. Pollen from MS45/ms45 plants were used to fertilize male-sterile ms45/ms45 plants for the purpose of generating embryos which would be ms45/ms45 as described in Cigan et al 2001. […] Five random bialophos-resistant callus events containing integrated copies of PHP16972 were placed onto maintenance media (FIG. 5, (−)) and maintenance media containing 100 mg/liter safener CBSU-2 (FIG. 5 (+)) at room temperature for 18 hours, removed and PolyA+RNA prepared and used for RNA analysis as described (Cigan et al. 2001. Sex. Plant Reprod. 14, 135-142) using the ZmMS45 and ZmActin probes for hybridization analysis. […] A very low signal was observed when callus was grown in the absence of CBSU. Actin was used as a control probe to show nearly equivalent RNA levels were present in all samples. […]

IN2-2 transcript = test: Northern blot of maize anther RNA with IN2-2 probe after CBSU treatment; format: in vivo; settings: CBSU-treated male-fertile and male-sterile plants, FIG. 2
Procedure: Wild type maize plants were grown to the meiosis stage of microspore development. Plants were watered with 30 mg 2-CBSU and allowed to develop to the quartet and early vacuolate stage of microspore development. PolyA+ anther RNA was isolated from wild type control and CBSU treated plants and stored. A cDNA library was constructed from mRNAs isolated from CBSU-treated plants, arrayed onto nylon filters and stored. A cDNA subtraction library was generated using the Clontech PCR-Select cDNA Subtraction Kit (#K1804-1) following the manufacturer's instructions to enrich for CBSU-specific transcripts. Using this approach anther PolyA+mRNA from wild-type plants was used to enrich for transcripts found in the anther PolyA+mRNA from CBSU treated plants. […]
as §1

Q: With `NC(=O)NS(=O)(=O)c1ccccc1Cl` [CBSU, N-(aminocarbonyl)-2-chlorobenzenesulfonamide] as the compound, how does the “GUS expression in callus” value (1.0 kb ZmCAS1 promoter [1]) read?
A: The value was “inducible GUS expression”.

Q: And the “GUS expression in rice callus” value (1.0 kb ZmCAS1 promoter [2])?
A: The value was “strong GUS expression”.

Q: What about the “MS45 protein in leaf extracts” value (1.7 kb ZmCAS1 promoter [3]; FIG. 7) of the same compound?
A: Its value is “increased steady-state levels of the MS45 protein”.

Q: What about the “MS45 protein in anther extracts” value (1.7 kb ZmCAS1 promoter [3]; FIG. 8) of the same compound?
A: The value was “Increased MS45 protein”.

Q: And the “ZmCAS1 hybridization in mRNAs from callus, leaf and anther” value (ZmCAS1 transcript; maize callus or leaf treated with CBSU, FIG. 3)?
A: The value was “strong hybridization”.

Q: And the “ZmCAS1 hybridization signal in anther mRNA” value (ZmCAS1 transcript; male-fertile CBSU-treated plants (+, F))?
A: The value was “strong hybridization signals”.

Q: And the “ZmCAS1 hybridization signal in anther mRNA” value (ZmCAS1 transcript; male-sterile 5126:DAM CBSU-treated plants (+, S))?
A: Its value is “reduced ZmCAS1 signal”.

Q: And the “GUS expression in leaf punches” value (1.7 kb ZmCAS1 promoter [4])?
A: Its value is “strong GUS expression”.

Q: What about the “GUS expression in callus” value (1.7 kb ZmCAS1 promoter [5]; 10 mg/l CBSU) of the same compound?
A: The value was “low levels of GUS expression”.

Q: What about the “GUS expression in callus” value (1.7 kb ZmCAS1 promoter [5]; 100 mg/l CBSU) of the same compound?
A: Its value is “strong GUS expression”.

Q: And the “MS45 mRNA hybridization signal in callus” value (1.0 kb ZmCAS1 promoter [6])?
A: The value was “strong induction of a hybridization signal”.

Q: And the “IN2-2 hybridization signal in anther mRNA” value (IN2-2 transcript)?
A: The value was “strong hybridization signals”.
